Laboratory results as given in patent US6888003B2, “Method for producing 7-(pyrazole-3-yl) benzoxazoles” (BASF Aktiengesellschaft, priority 2000, dated 2005).

Legend:
Assay in all cases: Greenhouse herbicidal post-emergence test
[1] = tested on: CHEAL; type: in vivo, lamb's-quarters; conditions: application rate 31.3 g/ha
Text: (§1) The culture containers used were plastic pots containing loamy sand with approximately 3.0% of humus as the substrate. The seeds of the test plants were sown separately for each species. For the post-emergence treatment, the test plants were first grown to a height of 3 to 15 cm, depending on the plant form, and only then treated with the active compounds which had been suspended or emulsified in water. For this purpose, the test plants were either sown directly and grown in the same containers, or they were first grown separately as seedlings and transplanted into the test containers a few days prior to treatment. The application rate for the post-emergence treatment was 31.3 g of a.s./ha. Depending on the species, the plants were kept at 10-25° C. or 20-35° C. The test period extended over 2 to 4 weeks. During this time, the plants were tended, and their response to the individual treatments was evaluated. The evaluation was carried out using a scale from 0 to 100. 100 means no emergence of the plants, or complete destruction of at least the above-ground parts, and 0 means no damage, or normal course of growth. The plants used in the greenhouse experiments were composed of the following species: [table]

[2] = tested on: SETFA; type: in vivo, giant foxtail
Text: as §1, with “The application rate for the post-emergence treatment was 31.3 g of a.s./ha.” left out

[3] = tested on: BRAPL; type: in vivo, marmalade grass
Text: as §1, with “The application rate for the post-emergence treatment was 31.3 g of a.s./ha.” left out

[4] = tested on: AMARE; type: in vivo, velvet leaf; conditions: application rate 31.3 g/ha
Text: as §1

## Cn1nc(-c2c(F)cc(Cl)c(N)c2Br)c(Cl)c1OC(F)F [IVa.1, 2-bromo-4-fluoro-6-chloro-3-(4-chloro-5-difluoromethoxy-1-methyl-1H-pyrazol-3-yl)aniline]
[1]
  herbicidal post-emergence activity against CHEAL: very good
[2]; application rate 15.6 g/ha
  herbicidal post-emergence activity against SETFA: very good to good
[2]; application rate 31.3 g/ha
  herbicidal post-emergence activity against SETFA: very good
[3]; application rate 15.6 g/ha
  herbicidal post-emergence activity against BRAPL: very good
[3]; application rate 31.3 g/ha
  herbicidal post-emergence activity against BRAPL: very good
[4]
  herbicidal post-emergence activity against AMARE: very good
